Results: patent EP2209388B1, “SACRIFICIAL ANTIOXIDANT” (Borregaard AS, priority 2007, dated 2009)

Key:
[1] = Peroxynitrite test (total antioxidant effect), antioxidant screening; assay type: biochemical; details: comparison in words of the scores of table 3
Description: To assess and verify the effect of lignosulfonate as antioxidant several lignosulfonic samples have been tested in different antioxidant screenings. Table 3. Samples tested for antioxidant effect. Five types of lignosulfonates were investigated; sodium lignosulfonate, a desulfonated oxidized lignosulfonate, and three fractions of a sodium lignosulfonate; low, medium and high molecular weight. […] The desulfonated oxidized lignosulfonate had the best antioxidant effect compared to the sodium lignosulfonate samples. […] As a comparison the synthetic antioxidant Ethoxyquin, gave the highest score in the test.

[2] = Autoxidation of rosmarinic acid with oxygen at 65°C with/without lignosulfonate (Example 3), reversed-phase HPLC-UV 280 nm; assay type: physicochemical; parameters: unit not given here
Description: The combined effect of lignosulfonate was in addition shown in autoxidation experiments using two different lignosulfonates and rosmarinic acid as a representative for a different antioxidant. […] In parallel the same concentration of antioxidant, rosmarinic acid 1%, was supplemented with lignosulfonate. The tested lignins were a sodium lignosulfonate (LS 1) and a calcium lignosulfonate (LS 2), both added in the same amounts based on dry content (17%). Samples were withdrawn daily and the amount of remaining antioxidant was chromatographically quantified. Reversed-phase HPLC with UV-detection at 280 nm was the method of choice for monitoring the positive effect of LS.

Compound | antioxidant effect [1] | Autoxidation of rosmarinic acid (amount of remaining antioxidant) ([2]; Day 0, rosmarinic acid 1%, lignosulfonate 17% dry content) | Autoxidation of rosmarinic acid (amount of remaining antioxidant) ([2]; Day 1) | Autoxidation of rosmarinic acid (amount of remaining antioxidant) ([2]; Day 2) | Autoxidation of rosmarinic acid (amount of remaining antioxidant) ([2]; Day 3) | Autoxidation of rosmarinic acid (amount of remaining antioxidant) ([2]; Day 4) | Autoxidation of rosmarinic acid (amount of remaining antioxidant) ([2]; Day 4, listed as rosmarinic acid)
Cc1cc(C(C)(C)C)c(O)c(C(C)(C)C)c1 [BHT, 2,6-di-tert-butyl-4-methylphenol] | scored lowest |  |  |  |  |  | 
CCOc1ccc2c(c1)C(C)=CC(C)(C)N2 [Ethoxyquin, 1,2-dihydro-6-etoxy-2,2,4-trimetylquinoline] | highest score |  |  |  |  |  | 
O=C(/C=C/c1ccc(O)c(O)c1)O[C@H](Cc1ccc(O)c(O)c1)C(=O)O [Rosmarinic acid] |  | 100 | 72 | 45 | 11 | 2 | completely degraded
